From paper PMC8130611 (ACS infectious diseases, 2021)
pIC50: −log10 of the molar value. “Also recorded” adds a separate entry of the source.

Tests used:
TNF-R1–TNF-α interaction = TNF-R1–TNF-α interaction (Homo sapiens, UniProt P01375+P19438); assay: cell-free ELISA-type counter-assay, inhibition of TNF-R1–TNF-α interaction; assay type: binding
THP-1 human cells = conditions: concentrations of up to 200 μM; ref [61], [62]; cited from earlier work
SARS-CoV = conditions: cited from earlier work
[1] = biological target: SARS-CoV-2-S-RBD–hACE2 PPI (Severe acute respiratory syndrome coronavirus 2, UniProt P0DTC2); assay type: binding, human; conditions: for pIC50: read-out: IC50, inhibition of SARS-CoV-2-RBD binding to hACE2
[2] = tested on: BacMam-based pseudovirus bearing the SARS-CoV-2 S protein; assay type: cell-based

Sequence of TNF-R1–TNF-α interaction (P19438 30-211): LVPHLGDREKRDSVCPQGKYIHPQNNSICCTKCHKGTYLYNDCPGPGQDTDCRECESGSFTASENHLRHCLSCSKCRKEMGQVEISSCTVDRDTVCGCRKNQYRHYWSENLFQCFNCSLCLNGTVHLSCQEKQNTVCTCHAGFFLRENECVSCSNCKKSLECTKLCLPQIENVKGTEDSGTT
Sequence of TNF-R1–TNF-α interaction (P01375 85-233): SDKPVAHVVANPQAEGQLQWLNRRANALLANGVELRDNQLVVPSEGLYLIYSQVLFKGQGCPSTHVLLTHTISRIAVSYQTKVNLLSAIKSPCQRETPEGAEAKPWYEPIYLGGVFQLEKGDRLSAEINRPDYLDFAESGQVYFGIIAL

Nc1c(/N=N/c2ccc(-c3ccc(/N=N/c4cc(S(=O)(=O)O)c5ccccc5c4N)cc3)cc2)cc(S(=O)(=O)O)c2ccccc12 [Congo red]
pIC50 (TNF-R1–TNF-α interaction): 5.22

O=C(Nc1ccc(-c2ccc(C(=O)Nc3cccc4cccc(S(=O)(=O)O)c34)cc2)cc1)c1ccc([N+](=O)[O-])cc1 [DRI-C21041]
effect on viability of THP-1 human cells (THP-1 human cells): did not have significant effects

CN1CCN(c2ccc(CNC(=O)c3ccno3)cc2)CC1 [SSAA09E2]
activities of previously identified candidates (SARS-CoV): 3.1 µM

OC(COc1cccc(OCC(O)CN2CCCCC2)c1)CN1CCCCC1 (stereo not shown) [VE607]
activities of previously identified candidates (SARS-CoV): 1.6 µM

CCOc1ccc(N=Nc2ccc(-c3ccc(N=Nc4c(O)ccc5cc(S(=O)(=O)O)cc(S(=O)(=O)O)c45)c(C)c3)cc2C)cc1 [calcomine scarlet 3B]
pIC50 [1]: 5.37

Nc1ccc(N=Nc2ccc(-c3ccc(N=Nc4c(S(=O)(=O)O)cc5cc(S(=O)(=O)O)c(N=Nc6ccccc6)c(O)c5c4N)cc3)cc2)c(N)c1 [chlorazol black]
pIC50 [1]: 5.59

CCN(CC)CCCC(C)Nc1ccnc2cc(Cl)ccc12 (stereo not shown) [chloroquine]
cytotoxicity (MTS) (HEK293T cells): noticeable cytotoxicity

CCN(CCO)CCCC(C)Nc1ccnc2cc(Cl)ccc12 (stereo not shown) [hydroxychloroquine]
inhibition of pseudovirus entry (BacMam), in words [2]: did not show any significant inhibition; also recorded: no effect

CN(C)c1ccc2nc3ccc(=[N+](C)C)cc-3sc2c1 [methylene blue]
activity in screening for inhibitors of SARS-CoV-2 RBD binding [1]: promising inhibitory activity

Nc1c(N=Nc2ccc([N+](=O)[O-])cc2)c(S(=O)(=O)[O-])cc2cc(S(=O)(=O)[O-])c(N=Nc3ccccc3)c(O)c12.[Na+].[Na+] [naphthol blue black]
inhibitory activity on SARS-CoV-2-RBD–hACE2 binding (in words) [1]: no inhibitory activity

O=C([O-])c1c(Cl)c(Cl)c(Cl)c(Cl)c1-c1c2cc(Br)c(=O)c(Br)c-2oc2c(Br)c([O-])c(Br)cc12.[Na+].[Na+] [phloxine B]
activity in screening for inhibitors of SARS-CoV-2 RBD binding [1]: strongest activity

O=C([O-])c1c(Cl)c(Cl)c(Cl)c(Cl)c1-c1c2cc(I)c(=O)c(I)c-2oc2c(I)c([O-])c(I)cc12.[Na+].[Na+] [rose Bengal]
activity in screening for inhibitors of SARS-CoV-2 RBD binding [1]: strongest activity

O=S(=O)([O-])c1ccc(N=Nc2c(O)ccc3cc(S(=O)(=O)[O-])ccc23)cc1.[Na+].[Na+] [sunset yellow FCF]
inhibitory activity on SARS-CoV-2-RBD–hACE2 binding (in words) [1]: no inhibitory activity

Cc1ccc(C(=O)Nc2ccc(S(=O)(=O)O)c3cc(S(=O)(=O)O)cc(S(=O)(=O)O)c23)cc1NC(=O)c1cccc(NC(=O)Nc2cccc(C(=O)Nc3cc(C(=O)Nc4ccc(S(=O)(=O)O)c5cc(S(=O)(=O)O)cc(S(=O)(=O)O)c45)ccc3C)c2)c1 [suramin]
inhibitory activity on SARS-CoV-2-RBD–hACE2 binding (in words) [1]: neither chloroquine nor suramin showed inhibitory activity; also recorded: no activity

erythrosine B
activity in screening for inhibitors of SARS-CoV-2 RBD binding [1]: strongest activity | pIC50 [1]: 6.40
